Key:
Format in all cases: biochemical
FGFR1 = target: T1, FGFR1 (Homo sapiens, UniProt P11362); test: FGFR Enzymatic Assay (FRET peptide phosphorylation), FGFR1; settings: FGFR1 0.02 nM, ATP 210 μM
T1 construct: purchased Millipore or Invitrogen
Experimental: (§1) The inhibitor potency of the Example compounds was measured in an enzyme assay that measures peptide phosphorylation using FRET measurements to detect product formation. Inhibitors were serially diluted in DMSO and a volume of 0.5 μL was transferred to the wells of a 384-well plate. For FGFR3, a 10 μL volume of FGFR3 enzyme (Millipore) diluted in assay buffer (50 mM HEPES, 10 mM MgCl2, 1 mM EGTA, 0.01% Tween-20, 5 mM DTT, pH 7.5) was added to the plate and pre-incubated for 5-10 minutes. Appropriate controls (enzyme blank and enzyme with no inhibitor) were included on the plate. The assay was initiated by the addition of a 10 μL solution containing biotinylated EQEDEPEGDYFEWLE peptide substrate (SEQ ID NO: 1) and ATP (final concentrations of 500 nM and 140 μM respectively) in assay buffer to the wells. The plate was incubated at 25° C. for 1 hr. The reactions were ended with the addition of 10 μL/well of quench solution (50 mM Tris, 150 mM NaCl, 0.5 mg/mL BSA, pH˜7.8, 30 mM EDTA with Perkin Elmer Lance Detection Reagents at 3.75 nM Eu-antibody PY20 and 180 nM APC-Streptavidin). The plate was allowed to equilibrate for 1 hour before scanning the wells on a PheraStar plate reader (BMG Labtech). The enzymes were purchased from Millipore or Invitrogen.
(§2) FGFR1 and FGFR2 were measured under equivalent conditions with the following changes in enzyme and ATP concentrations: FGFR1, 0.02 nM and 210 μM, respectively and FGFR2, 0.01 nM and 100 μM, respectively.
(§3) GraphPad prism3 was used to analyze the data. The IC50 values were derived by fitting the data to the equation for a sigmoidal dose-response with a variable slope. Y=Bottom+(Top−Bottom)/(1+10^((Log IC50−X)*HillSlope)) where X is the logarithm of concentration and Y is the response.

FGFR2 = target: T2, FGFR2 (Homo sapiens, UniProt P21802); test: FGFR Enzymatic Assay (FRET peptide phosphorylation), FGFR2; settings: FGFR2 0.01 nM, ATP 100 μM
T2 construct: purchased Millipore or Invitrogen
T2 sequence (P21802 22-821): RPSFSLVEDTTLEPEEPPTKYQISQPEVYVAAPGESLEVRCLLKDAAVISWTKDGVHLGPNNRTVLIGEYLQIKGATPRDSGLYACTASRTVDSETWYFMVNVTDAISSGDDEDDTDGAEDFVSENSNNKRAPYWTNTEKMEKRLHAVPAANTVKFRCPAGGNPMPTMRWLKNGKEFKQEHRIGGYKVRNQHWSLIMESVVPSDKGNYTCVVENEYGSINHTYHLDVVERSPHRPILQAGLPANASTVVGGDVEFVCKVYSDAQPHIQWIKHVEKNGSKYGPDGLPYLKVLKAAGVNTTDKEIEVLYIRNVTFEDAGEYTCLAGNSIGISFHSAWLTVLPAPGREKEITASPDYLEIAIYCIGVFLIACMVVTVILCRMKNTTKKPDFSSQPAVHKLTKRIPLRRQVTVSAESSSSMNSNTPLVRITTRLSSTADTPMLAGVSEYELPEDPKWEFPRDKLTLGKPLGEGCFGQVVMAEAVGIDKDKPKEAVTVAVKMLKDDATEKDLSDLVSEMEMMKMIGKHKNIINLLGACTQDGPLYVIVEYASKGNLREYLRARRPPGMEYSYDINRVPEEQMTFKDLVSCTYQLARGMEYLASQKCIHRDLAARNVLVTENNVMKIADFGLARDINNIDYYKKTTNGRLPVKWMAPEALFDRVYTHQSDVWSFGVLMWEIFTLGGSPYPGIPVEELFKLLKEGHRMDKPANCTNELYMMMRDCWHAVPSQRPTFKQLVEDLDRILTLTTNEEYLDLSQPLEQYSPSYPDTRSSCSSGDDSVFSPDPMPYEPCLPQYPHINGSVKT
Experimental: as §1, §2, §3

FGFR3 = target: T3, FGFR3 (Homo sapiens, UniProt P22607); test: FGFR Enzymatic Assay (FRET peptide phosphorylation), FGFR3; settings: ATP 140 μM, 25° C. for 1 hr
T3 construct: purchased Millipore
T3 sequence (P22607 23-806): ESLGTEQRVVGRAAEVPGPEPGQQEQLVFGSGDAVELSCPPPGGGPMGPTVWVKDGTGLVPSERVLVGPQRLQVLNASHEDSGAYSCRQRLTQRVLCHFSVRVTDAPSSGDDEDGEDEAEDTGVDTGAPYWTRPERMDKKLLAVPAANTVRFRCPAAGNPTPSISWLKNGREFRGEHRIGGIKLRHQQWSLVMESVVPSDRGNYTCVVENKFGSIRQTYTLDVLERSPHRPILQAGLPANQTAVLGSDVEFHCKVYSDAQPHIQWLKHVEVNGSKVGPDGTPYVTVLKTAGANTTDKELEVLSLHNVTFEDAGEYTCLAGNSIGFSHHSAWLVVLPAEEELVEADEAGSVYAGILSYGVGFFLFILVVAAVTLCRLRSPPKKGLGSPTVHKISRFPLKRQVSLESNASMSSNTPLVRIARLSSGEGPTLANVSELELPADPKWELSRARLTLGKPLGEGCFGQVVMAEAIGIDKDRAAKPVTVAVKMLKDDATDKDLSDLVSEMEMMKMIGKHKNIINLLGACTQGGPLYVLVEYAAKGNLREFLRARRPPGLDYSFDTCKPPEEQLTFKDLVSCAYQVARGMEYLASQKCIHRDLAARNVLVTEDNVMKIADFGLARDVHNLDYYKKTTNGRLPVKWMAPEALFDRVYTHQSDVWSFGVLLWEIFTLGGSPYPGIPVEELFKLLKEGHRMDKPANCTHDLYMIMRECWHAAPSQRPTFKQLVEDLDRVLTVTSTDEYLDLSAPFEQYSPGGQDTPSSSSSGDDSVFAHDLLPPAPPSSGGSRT
Experimental: as §1, §3

Measured: IC50

T1 sequence (P11362 22-822): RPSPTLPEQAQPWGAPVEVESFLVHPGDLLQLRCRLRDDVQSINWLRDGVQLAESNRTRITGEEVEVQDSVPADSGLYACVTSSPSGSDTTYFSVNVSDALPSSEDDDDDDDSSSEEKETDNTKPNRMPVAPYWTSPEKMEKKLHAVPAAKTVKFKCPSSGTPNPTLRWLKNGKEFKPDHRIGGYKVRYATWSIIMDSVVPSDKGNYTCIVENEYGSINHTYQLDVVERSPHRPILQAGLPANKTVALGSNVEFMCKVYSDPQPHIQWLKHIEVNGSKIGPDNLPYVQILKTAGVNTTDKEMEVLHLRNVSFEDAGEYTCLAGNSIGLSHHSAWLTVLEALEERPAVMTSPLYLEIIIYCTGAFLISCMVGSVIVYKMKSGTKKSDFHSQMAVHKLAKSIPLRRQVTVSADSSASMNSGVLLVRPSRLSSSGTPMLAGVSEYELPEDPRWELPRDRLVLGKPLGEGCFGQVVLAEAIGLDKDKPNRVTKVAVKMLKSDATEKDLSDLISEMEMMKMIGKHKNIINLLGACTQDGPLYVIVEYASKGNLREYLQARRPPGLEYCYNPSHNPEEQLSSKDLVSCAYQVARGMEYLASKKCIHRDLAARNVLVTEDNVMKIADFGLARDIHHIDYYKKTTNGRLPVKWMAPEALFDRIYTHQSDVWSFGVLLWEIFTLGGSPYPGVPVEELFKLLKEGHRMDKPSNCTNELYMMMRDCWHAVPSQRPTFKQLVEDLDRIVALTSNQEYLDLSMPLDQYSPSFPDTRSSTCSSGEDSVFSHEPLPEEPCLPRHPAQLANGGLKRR

COc1cc(OC)c(Cl)c(-c2ncc3c(-c4ccc5c(c4)CN([C@H]4CC[C@H](O)CC4)C5=O)n[nH]c3n2)c1Cl [Example 23, 5-[6-(2,6-Dichloro-3,5-dimethoxyphenyl)-1H-pyrazolo[3,4-d]pyrimidin-3-yl]-2-(trans-4-hydroxycyclohexyl)isoindolin-1-one]
< 100 nM: all assays above

COc1cc(OC)c(F)c(-c2ncc3c(-c4ccc(N5CCN(C)CC5)cc4)n[nH]c3n2)c1F [Example 17, 6-(2,6-Difluoro-3,5-dimethoxyphenyl)-3-[4-(4-methylpiperazin-1-yl)phenyl]-1H-pyrazolo[3,4-d]pyrimidine]
< 100 nM: all assays above

COc1cc(OC)c(Cl)c(-c2cc3[nH]nc(-c4cnn(CC(=O)N5CCC(N(C)C)C5)c4)c3cn2)c1Cl (stereo not drawn) [Example 44, 1-({4-[6-(2,6-Dichloro-3,5-dimethoxyphenyl)-1H-pyrazolo[4,3-c]pyridin-3-yl]-1H-pyrazol-1-yl}acetyl)-N,N-dimethylpyrrolidin-3-amine]
< 100 nM: all assays above

COc1cc(OC)c(F)c(-c2ncc3c(-c4ccc5c(c4)CC(C(=O)N4CCN(C)CC4)O5)n[nH]c3n2)c1F (stereo not drawn) [Example 7, 6-(2,6-Difluoro-3,5-dimethoxyphenyl)-3-{2-[(4-methylpiperazin-1-yl)carbonyl]-2,3-dihydro-1-benzofuran-5-yl}-1H-pyrazolo[3,4-d]pyrimidine]
< 100 nM: all assays above

COc1cc(OC)c(F)c(-c2cc3[nH]nc(-c4ccc5c(c4)CN(C4CC4)C5=O)c3cn2)c1F [Example 54, 2-Cyclopropyl-5-[6-(2,6-difluoro-3,5-dimethoxyphenyl)-1H-pyrazolo[4,3-c]pyridin-3-yl]isoindolin-1-one]
< 100 nM: all assays above

COc1ccc(C#Cc2n[nH]c3nc(-c4c(F)c(OC)cc(OC)c4F)ncc23)cc1 [Example 14, 6-(2,6-Difluoro-3,5-dimethoxyphenyl)-3-[(4-methoxyphenyl)ethynyl]-1H-pyrazolo[3,4-d]pyrimidine]
< 100 nM: all assays above

COc1cc(OC)c(F)c(-c2cc3[nH]nc(-c4ccnc(N5CCN(C)CC5)c4)c3cn2)c1F [Example 27, 6-(2,6-Difluoro-3,5-dimethoxyphenyl)-3-[2-(4-methylpiperazin-1-yl)pyridin-4-yl]-1H-pyrazolo[4,3-c]pyridine]
< 100 nM: all assays above

COc1cc(OC)c(Cl)c(-c2cc3[nH]nc(/C=C/c4cnn(C)c4)c3cn2)c1Cl [Example 49, 6-(2,6-Dichloro-3,5-dimethoxyphenyl)-3-[(E)-2-(1-methyl-1H-pyrazol-4-yl)vinyl]-1H-pyrazolo[4,3-c]pyridine]
< 100 nM: all assays above

COc1cc(OC)c(F)c(-c2ncc3c(-c4ccc5c(c4)CN(C(C)CO)C5=O)n[nH]c3n2)c1F (stereo not drawn) [Example 81, 5-[6-(2,6-Difluoro-3,5-dimethoxyphenyl)-1H-pyrazolo[3,4-d]pyrimidin-3-yl]-2-(2-hydroxy-1-methylethyl)isoindolin-1-one]
< 100 nM: all assays above

COc1cc(OC)c(Cl)c(-c2cc3[nH]nc(-c4ccc5c(c4)NC(=O)CO5)c3cn2)c1Cl [Example 30, 6-[6-(2,6-Dichloro-3,5-dimethoxyphenyl)-1H-pyrazolo[4,3-c]pyridin-3-yl]-2H-1,4-benzoxazin-3(4H)-one]
< 100 nM: all assays above

COc1cc(OC)c(Cl)c(-c2ncc3c(-c4ccc(N5CCN(C)CC5)cc4)n[nH]c3n2)c1Cl [Example 75, 6-(2,6-Dichloro-3,5-dimethoxyphenyl)-3-[4-(4-methylpiperazin-1-yl)phenyl]-1H-pyrazolo[3,4-d]pyrimidine]
< 100 nM: all assays above

CCN1Cc2cc(-c3n[nH]c4nc(-c5c(Cl)c(OC)cc(OC)c5Cl)ncc34)cnc2C1=O [Example 77, 3-[6-(2,6-Dichloro-3,5-dimethoxyphenyl)-1H-pyrazolo[3,4-d]pyrimidin-3-yl]-6-ethyl-5,6-dihydro-7H-pyrrolo[3,4-b]pyridin-7-one]
< 100 nM: all assays above

COc1cc(OC)c(Cl)c(-c2cc3[nH]nc(/C=C/c4cnn(CCO)c4)c3cn2)c1Cl [Example 50, 2-(4-{(E)-2-[6-(2,6-Dichloro-3,5-dimethoxyphenyl)-1H-pyrazolo[4,3-c]pyridin-3-yl]vinyl}-1H-pyrazol-1-yl)ethanol]
< 100 nM: all assays above

COc1cc(OC)c(F)c(-c2ncc3c(-c4ccc5c(c4)CCNC5=O)n[nH]c3n2)c1F [Example 12, 6-[6-(2,6-Difluoro-3,5-dimethoxyphenyl)-1H-pyrazolo[3,4-d]pyrimidin-3-yl]-3,4-dihydroisoquinolin-1(2H)-one]
< 100 nM: all assays above

COc1cc(OC)c(F)c(-c2ncc3c(-c4ccc(N5CCN(C)CC5)nc4)n[nH]c3n2)c1F [Example 18, 6-(2,6-Difluoro-3,5-dimethoxyphenyl)-3-[6-(4-methylpiperazin-1-yl)pyridin-3-yl]-1H-pyrazolo[3,4-d]pyrimidine]
< 100 nM: all assays above

COc1cc(OC)c(Cl)c(-c2cnc3c(-c4cnn(CCCO)c4)n[nH]c3c2)c1Cl [Example 71, 3-{4-[6-(2,6-Dichloro-3,5-dimethoxyphenyl)-1H-pyrazolo[4,3-b]pyridin-3-yl]-1H-pyrazol-1-yl}propan-1-ol]
< 100 nM: all assays above

COc1cc(OC)c(Cl)c(-c2cc3[nH]nc(-c4cnn(C)c4)c3cn2)c1Cl [Example 90, 6-(2,6-Dichloro-3,5-dimethoxyphenyl)-3-(1-methyl-1H-pyrazol-4-yl)-1H-pyrazolo[4,3-c]pyridine]
< 100 nM: all assays above

COc1cc(OC)c(F)c(-c2ncc3c(-c4ccc5nccn5c4)n[nH]c3n2)c1F [Example 93, 6-(2,6-Difluoro-3,5-dimethoxyphenyl)-3-imidazo[1,2-a]pyridin-6-yl-1H-pyrazolo[3,4-d]pyrimidine]
< 100 nM: all assays above

CCN1CCc2cc(-c3n[nH]c4nc(-c5c(Cl)c(OC)cc(OC)c5Cl)ncc34)ccc2C1=O [Example 10, 6-[6-(2,6-Dichloro-3,5-dimethoxyphenyl)-1H-pyrazolo[3,4-d]pyrimidin-3-yl]-2-ethyl-3,4-dihydroisoquinolin-1(2H)-one]
< 100 nM: all assays above

COc1cc(OC)c(Cl)c(-c2cc3[nH]nc(-c4cnn(CC(=O)N5CCOCC5)c4)c3cn2)c1Cl [Example 40, 6-(2,6-Dichloro-3,5-dimethoxyphenyl)-3-[1-(2-morpholin-4-yl-2-oxoethyl)-1H-pyrazol-4-yl]-1H-pyrazolo[4,3-c]pyridine]
< 100 nM: all assays above

COc1cc(OC)c(Cl)c(-c2cc3[nH]nc(-c4cnn(CC(=O)N5CCC(OC)C5)c4)c3cn2)c1Cl (stereo not drawn) [Example 45, 6-(2,6-Dichloro-3,5-dimethoxyphenyl)-3-{1-[2-(3-methoxypyrrolidin-1-yl)-2-oxoethyl]-1H-pyrazol-4-yl}-1H-pyrazolo[4,3-c]pyridine]
< 100 nM: all assays above

COc1cc(OC)c(F)c(-c2ncc3c(-c4ccc5c(c4)CC(C(=O)N(C)C)O5)n[nH]c3n2)c1F (stereo not drawn) [Example 3, 5-[6-(2,6-Difluoro-3,5-dimethoxyphenyl)-1H-pyrazolo[3,4-d]pyrimidin-3-yl]-N,N-dimethyl-2,3-dihydro-1-benzofuran-2-carboxamide]
< 100 nM: all assays above

Reference: patent US9266892B2, “Fused pyrazoles as FGFR inhibitors” (Incyte Corporation, priority 2012, dated 2016)
